# Read-outs that look alike come from different tables or passages of the source.
# Columns and labels:
# [1] = 200 μl i.p. of 2 mg/ml gold, 24 hours
# Procedure: (§1) Balb/C mice which had tumors on their thighs (KHJJ line, breast cancer) were used in these experiments. The mice were injected i.p. with 200 μl of liposomes containing 2 mg of gold atoms per/ml solution, and after 24 hours the animals were dissected and various internal organs were harvested, which included the tumor, brain, heart, lungs, spleen, liver, kidneys, and blood. The organs were rinsed and prepared for ICP-MS analysis. In control experiments, mice were injected with a solution containing 2 mg of gold/ml without confinement in liposomes.
# 1. A solution of gold chloride of 2 mg/ml (2000). The gold was not confined in liposomes. 2. A gold-containing liposome solution (2000) of gold content of 2 mg/ml.
# [2] = 200 μl i.p., 2 mg of gold/ml
# Procedure: as §1
smiles,measurement,setting,value
"[Cl][Au]([Cl])[Cl] [gold chloride solution, gold chloride]",Gold atoms per cell,[1]; Bladder,1.30E+10 atoms per cell
same,Gold atoms per cell,[1]; Blood,1.37E+08 atoms per cell
same,Gold atoms per cell,[1]; Brain,1.62E+07 atoms per cell
same,Gold atoms per cell,[1]; Heart,1.63E+09 atoms per cell
same,Gold atoms per cell,[1]; Kidneys,1.58E+09 atoms per cell
same,Gold atoms per cell,[1]; Liver,1.88E+08 atoms per cell
same,Gold atoms per cell,[1]; Lungs,1.36E+08 atoms per cell
same,Gold atoms per cell,[1]; Spleen,3.34E+08 atoms per cell
same,Gold atoms per cell,[1]; Tumor,1.10E+08 atoms per cell
same,survival of injected mice (toxicity of gold),[2],died after 24 hours

# Source: US20100112040A1, “Preparation of Heavy Metal-Containing Nano-Liposomes and their Uses in Medical Therapy” (S.B. BIOTECHNOLOGIES LTD., priority 2006, published 2010)
